One block for each molecule: values may come before it.
Key:
[1] = test system: muscle-R1KO mice; assay: Treatment of muscle-R1KO mice with AICAR, resveratrol or MnTBAP; type: in vivo; details: AICAR 500 mg per kg body weight, 2 hours
Method: Mitochondrial content assays were carried out as described in the following document (Cell Metab. 4, 75-87 (2006)), with slight modifications. Quantification of the mitochondrial content was conducted by using mtDNA and MitoTracker Green probe (Molecular Probes) according to the method as described in the following document (Obes. Res. 13, 574-581 (2005)). MitoTracker Green probe preferentially accumulates in mitochondria regardless of the mitochondrial membrane potential and provides an accurate assessment of mitochondrial mass. Cells were washed with PBS and after addition of 100 nM MitoTracker Green FM (Molecular Probes), incubated at 37° C. for 30 min. […] Fluorescence intensity was detected with excitation and emission wavelengths of 490 and 516 nm, respectively, and the values thus measured were corrected for total protein (mg/ml).
Oral glucose tolerance test (OGTT) and insulin tolerance test (ITT) were conducted by the method described in the following documents (Nature Med. 8, 1288-1295 (2002); Nature Med. 7, 941-946 (2001)), with some modifications. The areas of the glucose and insulin curves were calculated, respectively, by multiplying the cumulative mean height of the glucose values (1 mg/ml=1 cm) and insulin values (1 ng/ml=1 cm) by time (60 min=1 cm) (Nature Med. 13, 332-339 (2007); Nature Med. 7, 941-946 (2001)). […]

[2] = test system: C2C12 myocytes; assay: Mitochondrial content assay in C2C12 myocytes; type: cell-based, mouse; details: C2C12; preincubation AraA 0.5 mM 1 hr or STO-609 1 μg/ml 6 hr, then 10 μg/ml adiponectin 48 hr
Method: (§1) The mouse C2C12 myoblasts were grown in 90% Dulbecco's modified high glucose Eagle's medium containing 10% (v/v) fetal bovine serum. When the cells reached 80% confluent, the myoblasts were induced to differentiate into myocytes by replacing the medium with a low serum differentiation medium (98% Dulbecco's modified high glucose Eagle's medium, 2.5% (v/v) horse serum). The medium was changed daily. The C2C12 cells were transfected by using Pofectamine 2000 (Invitrogen) and following the manufacturer's instructions.
Mitochondrial content assays were carried out as described in the following document (Cell Metab. 4, 75-87 (2006)), with slight modifications. Quantification of the mitochondrial content was conducted by using mtDNA and MitoTracker Green probe (Molecular Probes) according to the method as described in the following document (Obes. Res. 13, 574-581 (2005)). MitoTracker Green probe preferentially accumulates in mitochondria regardless of the mitochondrial membrane potential and provides an accurate assessment of mitochondrial mass. Cells were washed with PBS and after addition of 100 nM MitoTracker Green FM (Molecular Probes), incubated at 37° C. for 30 min. Cells were harvested by using trypsin/EDTA and resuspended in PBS. Fluorescence intensity was detected with excitation and emission wavelengths of 490 and 516 nm, respectively, and the values thus measured were corrected for total protein (mg/ml).

[3] = test system: PGC-1α (Ppargc1a); assay: PGC-1α (Ppargc1a) expression in C2C12 myocytes; type: cell-based, mouse; details: C2C12; preincubation AraA 0.5 mM 1 hr, STO-609 1 μg/ml 6 hr or EGTA 5 mM 20 min, then adiponectin 10 μg/ml 1.5 hr
Method: Real-time PCR was carried out according to the method described in the following documents (Nature Med. 13, 332-339 2007); Nature 423, 762-769 (2003); J. Biol. Chem. 281, 8748-8755 (2006)). Total RNA was prepared from cells or tissues by using Trizol (Invitrogen) according to the manufacturer's instructions. Quantification of mRNA was conducted using a real-time PCR method (Nature 423, 762-769 (2003)) with slight modifications. The procedures used for immunoblotting are described in the following documents (Nature Med. 7, 941-946 (2001); J. Biol. Chem. 281, 26602-26614 (2006); J. Biol. Chem. 281, 8748-8755 (2006)). The livers or muscles were freeze-clamped in liquid nitrogen in situ (Nature Med. 7, 941-946 (2001); J. Biol. Chem. 281, 26602-26614 (2006); J. Biol. Chem. 281, 8748-8755 (2006)).
as §1

[4] = test system: AMPK; assay: AMPK phosphorylation in C2C12 myocytes; type: cell-based, mouse; details: C2C12; for effect on adiponectin-induced increased AMPK phosphorylation: preincubation 5 mM EGTA 20 min, 50 μM BAPTA-AM 30 min or 10 μM U73122 30 min, then adiponectin 30 μg/ml 5 min
Method: as §1

[5] = test system: muscle-R1KO mice; assay: Increased calcium influx experiment (Bay-K 8644 hydrogel) in muscle-R1KO mice; type: in vivo; details: 0.25 μM Bay-K 8644
[6] = test system: C2C12 myocytes; assay: Calcium imaging in C2C12 myocytes (fura-2); type: cell-based, mouse
Method: C212 myocytes cultured on glass base dishes (IWAKI) were treated with 2.5 μM fura-2/AM for 30 min. Fluorescence was measured with an Aquacosmos Calcium Imaging system (Hamamatsu Photonics). Ligands were delivered through the superfusing Ringer's solution (140 mM NaCl, 5.6 mM KCl, 5 mM HEPES, 2.0 mM sodium pyruvate, 1.25 mM KH2PO4, 2.0 mM CaCl2, 2.0 mM MgCl2, 9.4 mM D-glucose (pH 7.4)). For the calcium chelating experiment, EGTA solution (140 mM NaCl, 5.6 mM KCl, 5 mM HEPES, 2.0 mM sodium pyruvate, 1.25 mM KH2PO4, 2.0 mM MgCl2, 5.0 mM EGTA-2Na, 9.4 mM D-glucose (pH 7.4) was used for the bath solution. Fura-2 fluorescence ratios were calibrated to calcium ion signals.

[7] = biological target: T1, AdipoR1 (Mus musculus, UniProt Q91VH1); assay: Electrophysiological recording in Xenopus oocytes expressing AdipoR1; type: cell-based; details: oocytes expressing AdipoR1, 5 mM EGTA
T1 construct: expressed in transfected cells; host or cells: Xenopus oocytes (stage V to VII), cRNA synthesized from linearized modified pSPUTK
T1 sequence (Q91VH1 1-375): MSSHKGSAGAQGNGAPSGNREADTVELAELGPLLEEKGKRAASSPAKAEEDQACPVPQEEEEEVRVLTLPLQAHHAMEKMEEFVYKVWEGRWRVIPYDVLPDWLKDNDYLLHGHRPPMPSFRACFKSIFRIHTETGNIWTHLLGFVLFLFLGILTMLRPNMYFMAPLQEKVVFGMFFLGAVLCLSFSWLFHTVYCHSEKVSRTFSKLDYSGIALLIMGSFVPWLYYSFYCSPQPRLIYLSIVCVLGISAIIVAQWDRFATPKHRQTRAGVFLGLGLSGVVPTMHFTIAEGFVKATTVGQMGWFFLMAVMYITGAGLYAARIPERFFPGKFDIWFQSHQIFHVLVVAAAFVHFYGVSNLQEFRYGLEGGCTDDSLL
Method: Stage V to VII oocytes were treated with 2 mg/ml of collagenase S-1 (Nitta gelatin) in calcium ion-free saline solution (82.5 mM NaCl, 2 mM KCl, 1 mM MgCl2, and 5 mM HEPES, pH 7.5) for 1 to 2 hr at room temperature. The resulting oocytes were then microinjected with 50 ng of cRNA for mAdipoR1. The cRNA was synthesized from linearized modified pSPUTK. The injected oocytes were incubated for 3 days at 18° C. in a bath solution (88 mM NaCl, 1 mM KCl, 0.3 mM Ca(NO3)2, 0.4 mM CaCl2, 0.8 mM MgSO4, 2.4 mM […], 15 mM HEPES, pH 7.6) supplemented with 10 μg/ml of penicillin and streptomycin.
Whole cell currents were recorded with a two-electrode voltage clamp technique. Intracellular glass electrodes were filled with 3M KCl. Signals were amplified with an OC-725C amplifier (Warner Instruments), low-pass filtered at 50 Hz, and digitized at 1 kHz. A control bath solution contained 115 mM NaCl, 2.5 mM KCl, 1.8 mM CaCl2, and 10 mM HEPES. It was titrated to pH 7.2 with NaOH. A calcium ion free solution containing 1.8 mM BaCl2 instead of CaCl2 was used. The inward current was monitored at a holding potential of −80 mV. Calcium ion activated Cl^− current was monitored by applying 500-mscc depolarizing pulses of +100 mV and +50 mV from the holding potential of −80 mV. Adiponectin was supplied to the superfusing bath solution via a silicon tube connected to computer-driven solenoid valves. Data acquisition and analysis were carried out using Digidata 1322A and pCLAMP software.

[8] = test system: CaMKI; assay: CaMKI phosphorylation in C2C12 myocytes; type: cell-based, mouse; details: EGTA 5 mM
Method: as §1

Compound: NC(=O)c1ncn([C@@H]2O[C@H](CO)[C@@H](O)[C@H]2O)c1N [AICAR, 5-aminoimidazole-4-carboxamide-1-β-D-libocide]
phosphorylation of AMPK in muscle [1]: significantly increased

Compound: Nc1ncnc2c1ncn2[C@@H]1O[C@H](CO)[C@@H](O)[C@@H]1O [AraA, reference compound]
effect on the adiponectin-induced increase in mitochondrial biogenesis [2]: almost completely abolished | effect on PGC-1α expression induced by adiponectin [3]: only tended to decrease

Compound: CC(=O)OCOC(=O)CN(CC(=O)OCOC(C)=O)c1ccccc1OCCOc1ccccc1N(CC(=O)OCOC(C)=O)CC(=O)OCOC(C)=O [BAPTA-AM, Bis-(o-aminophenoxy)ethane-N,N,N9,N9-tetra-acetic acid, tetraacetoxymethyl ester]
effect on adiponectin-induced increased AMPK phosphorylation [4]: partially suppressed

Compound: COC(=O)C1=C(C)NC(C)=C([N+](=O)[O-])C1c1ccccc1C(F)(F)F (centres unmarked) [Bay-K 8644]
CaMKKβ activity (phosphorylation of CaMKI) in skeletal muscle [5]: increase in CaMKKβ activity

effect on adiponectin-induced inward current responses [7]: almost completely abolishes | effect on calcium-ion activated Cl- current responses to adiponectin [7]: almost completely abolished
Compound: O=C(O)CN(CCOCCOCCN(CC(=O)O)CC(=O)O)CC(=O)O [EGTA, reference compound]
effect on adiponectin-induced calcium ion response ([6]; 5 mM EGTA): almost completely abolished | effect on ATP-induced intracellular calcium ion release ([6]; EGTA): had no effect | effect on phosphorylation of AMPK induced by AICAR ([4]; 5 mM EGTA, AICAR 1 mM 1 hr): had no effect | effect on ionomycin-dependent phosphorylation of AMPK ([4]; 5 mM EGTA, ionomycin 1 μM 5 min): almost completely abolished | effect on adiponectin-induced increased AMPK phosphorylation [4]: partially suppressed | effect on PGC-1α expression induced by adiponectin [3]: effectively and almost completely abolished | effect on increased CaMKI phosphorylation stimulated with adiponectin [8]: almost completely abolished

Compound: O=C(O)c1ccc2c3c1cccc3c(=O)n1c3ccccc3nc21 [STO-609, reference compound]
effect on the adiponectin-induced increase in mitochondrial biogenesis [2]: almost completely abolished | effect on PGC-1α expression induced by adiponectin [3]: effectively and almost completely abolished

Compound: COc1ccc2c(c1)CC[C@@H]1[C@@H]2CC[C@]2(C)[C@@H](NCCCCCCN3C(=O)C=CC3=O)CC[C@@H]12 [U73122]
effect on adiponectin-induced increased AMPK phosphorylation [4]: had little effect

Reference: patent publication US20130274185A1, “Pharmaceutical for Pseudo-Exercise Therapy” (THE UNIVERSITY OF TOKYO, priority 2010, published 2013)
